Tests used:
[1] = test system: defense metabolites in maize leaves; conditions: in vivo; cited from earlier work
[2] = test system: Aspergillus niger, Trichoderma viride, Rhizopus sp., Penicillium sp., Aspergillus flavus and Fusarium graminearum; type: cell-based, fungi isolated from germinating maize kernels; conditions: for effect on fungal growth: 1 mM in PDA; for growth of fungal pathogens: 10 and 3.3 mM in PDA
[3] = test system: Pseudomonas syringae pv. tomato DC3000 and Xanthomonas campestris pv. vesicatoria; type: cell-based
[4] = test system: defense metabolites in maize leaves; assay: Accumulation of defense metabolites within treated leaves (internal pools); type: in vivo, Zea mays; conditions: following treatment
Source text: Induced terpene production is vital to anti-herbivore defenses in many plant species (Unsicker et al., Curr Opin Plant Biol. 12:479, 2009; Tholl, Curr Opin Plant Biol. 9:297, 2006; Keeling and Bohlmann, New Phytol 170:657, 2006). […] Expression of genes encoding the relevant biosynthetic enzymes, Anthranilic Acid Methyl Transferase 1 (AAMT1) and Indole-Glycerol Phosphate Lyase (IGL) were induced by both peptide and the insect elicitor ([…]., Plant Physiol 153:1795, 2010; Frey et al., Proc Natl Acad Sci USA. 97:14801, 2000). In addition to proteinaceous defenses, maize benzoxazinoids contribute to direct defenses against both herbivores and pathogens ([…] Agric Food Chem 57:1677, 2009). […] Oikawa et al., Phytochemistry. 56:669, 2001; Huffaker et al., Plant Physiol. 155:1325, 2011). […] It is hypothesized that simultaneous activation of both IGL and BX1 by ZmPep3 results in increased flux through the benzoxazinoid pathway to produce HDMBOA-Glc.

[5] = test system: herbivore defense genes in maize leaves; assay: Real time qPCR / qRT-PCR of defense and phytohormone biosynthesis genes in treated leaves
[6] = test system: jasmonic acid and ethylene production in maize leaves; assay: Phytohormone (JA, ET) production in treated leaves; type: in vivo, Zea mays; conditions: low equivalent quantities of either elicitor
Source text: A further embodiment is ZmPEP3 regulated production of defense-related metabolites. The elicitor-induced phytohormones JA and ethylene (ET) function as signals integral to initiation of protective responses against pathogens and herbivores (Howe and Jander, Annu Rev Plant Biol. 59:41, 2008).

Cotesia marginiventris = assay: Olfactometer assay of parasitoid wasp attraction to pretreated leaves; type: in vivo; conditions: naive C. marginiventris
Source text: The generalist parasitoid Cotesia marginiventris attacks many Lepidopteran species including S. exigua and is attracted to herbivory-induced maize volatiles (Turlings et al., Science 250:1251, 1990). Precisely which components are attractive has been difficult to determine, and the wasps respond strongly to unidentified minor components when subjected to gas chromatograph-coupled electroantennography (Gouinguene et al., J Chem Ecol. 31:1023, 2005). To determine whether the ZmPep3-induced blend was attractive to naïve C. marginiventris, olfactometer assays were conducted with leaves pretreated with ZmPep3, Gln-18:3 or water for 16 h. To ensure that any preference was due to elicited plant responses and not to an inherent attraction or repellence to any treatment substance, leaves treated at time of assay were used as controls. […] Thus, ZmPep3-regulated responses are sufficient to generate effective indirect defenses against Lepidopteran herbivores.

ZmPEP1: previously identified maize plant elicitor peptide VRRRPTTPGRPREGSGGNGGNHH (SEQ ID NO: 1) (Zea mays)
HDMBOA-Glc induction (literature) [1]: induced

C=CC(C)(O)CCC=C(C)CCC=C(C)C (centres unmarked) [Nerolidol, nerolidol]
fungal (microbial) growth at any concentration ([2]; 10 mM to 0.3 mM): did not limit microbial growth
sporulation of all fungi ([2]; all concentrations tested): strong inhibitor of sporulation
bacterial (microbial) growth at any concentration [3]: did not limit microbial growth

C[C@@H]1[C@H](O)[C@@H](C)/C=C/C=C/C=C/C=C/C=C/C=C/C=C/[C@H](O[C@@H]2O[C@H](C)[C@@H](O)[C@H](N)[C@@H]2O)C[C@@H]2O[C@](O)(C[C@@H](O)C[C@@H](O)[C@H](O)CC[C@@H](O)C[C@@H](O)CC(=O)O[C@H]1C)C[C@H](O)[C@H]2C(=O)O [amphotericin B, reference compound]
fungal growth on antimycotic-supplemented medium ([2]; three days after inoculation): have not spread from the center well
bacterial growth on antimycotic-supplemented medium [3]: proliferated unaffected

c1ccc2[nH]ccc2c1 [indole]
effect on fungal growth [2]: moderate limiting effect
growth of fungal pathogens [2]: prevented growth
bacterial growth at the lowest concentration tested [3]: particularly effective at limiting bacterial growth
growth of bacterial pathogens [3]: prevented growth

CC/C=C\C/C=C\C/C=C\CCCCCCCC(=O)N[C@@H](CCC(N)=O)C(=O)O [Gln-18:3, N-Linolenoyl-L-glutamine, reference compound]
anthranilate and indole in leaves [4]: increased
BX1 and BX2 expression by qRT-PCR ([5]; 12 h post-treatment): expressed
expression of genes encoding Terpene Synthases (TPS) 10 and 23 ([5]; equivalent molar concentrations): strongly activate expression
expression of AAMT1 and IGL genes ([5]; in vivo): induced
accumulation of transcripts for ACC Oxidase, Allene Oxide Synthase and Allene Oxide Cyclase ([5]; low equivalent quantities of elicitor): significantly increased accumulation of transcripts
JA and ET synthesis [6]: elicitation of JA and ET synthesis
wasp preference for leaves pretreated 16 h vs leaves treated at time of assay (Cotesia marginiventris): did not display a statistically significant preference

CC/C=C\C[C@H]1C(=O)CC[C@@H]1CC(=O)O [JA, jasmonic acid]
HDMBOA-Glc induction (literature) [1]: induced

hexenal
effect on fungal growth [2]: reduced
growth of fungal pathogens [2]: prevented growth
effect on bacterial (microbial) growth [3]: reduced
growth of bacterial pathogens [3]: prevented growth

C=CC(C)(O)CCC=C(C)C (centres unmarked) [linalool]
effect on fungal growth [2]: reduced
growth of fungal pathogens [2]: prevented growth
effect on bacterial (microbial) growth [3]: reduced
growth of bacterial pathogens [3]: prevented growth
